Assay results as given in patent US20240226115A1, “AXL INHIBITOR COMPOUNDS” (ARCUS BIOSCIENCES, INC., priority 2021, published 2024).

Experiments:
Axl [1] = molecular target: T1, Axl (Homo sapiens, UniProt P30530); experiment: Axl NanoBRET intracellular kinase assay (Cell Binding); parameters: host or cells: HEK-293; conditions: HEK-293 cells transfected with Axl-NanoLuc fusion vector; displacement of K-5 NanoBRET tracer
T1 sequence (P30530 26-894): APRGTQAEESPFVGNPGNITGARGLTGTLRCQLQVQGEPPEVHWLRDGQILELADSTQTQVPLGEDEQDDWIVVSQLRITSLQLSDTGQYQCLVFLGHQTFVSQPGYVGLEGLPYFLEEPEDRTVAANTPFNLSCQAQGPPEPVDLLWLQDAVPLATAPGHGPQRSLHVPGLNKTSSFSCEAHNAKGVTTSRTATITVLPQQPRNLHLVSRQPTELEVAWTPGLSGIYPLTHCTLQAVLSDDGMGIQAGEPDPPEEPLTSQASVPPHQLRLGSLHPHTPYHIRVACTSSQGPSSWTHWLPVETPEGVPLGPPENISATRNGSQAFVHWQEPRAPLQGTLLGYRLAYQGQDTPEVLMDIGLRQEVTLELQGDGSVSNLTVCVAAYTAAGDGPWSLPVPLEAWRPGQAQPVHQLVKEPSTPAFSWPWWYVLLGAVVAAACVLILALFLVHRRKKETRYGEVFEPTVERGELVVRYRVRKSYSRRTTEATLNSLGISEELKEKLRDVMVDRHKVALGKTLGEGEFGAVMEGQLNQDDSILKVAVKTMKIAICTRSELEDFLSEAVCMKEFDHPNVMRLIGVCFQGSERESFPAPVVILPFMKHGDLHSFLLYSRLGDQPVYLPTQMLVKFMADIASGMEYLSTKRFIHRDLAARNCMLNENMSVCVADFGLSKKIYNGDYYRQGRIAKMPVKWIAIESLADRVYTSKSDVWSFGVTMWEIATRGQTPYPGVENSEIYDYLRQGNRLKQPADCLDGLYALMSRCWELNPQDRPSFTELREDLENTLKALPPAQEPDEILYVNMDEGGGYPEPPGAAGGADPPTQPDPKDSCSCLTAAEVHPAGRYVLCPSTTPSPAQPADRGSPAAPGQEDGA
Method: Axl NanoBRET™ intracellular kinase assay (Promega, N2540) was performed according to manufacturer's recommendation. In brief, HEK-293 cells are transiently transfected with Axl-NanoLuc fusion vector (Promega, NV1071), utilizing Fugene HD transfection reagent (Promega, E2311) a day before experiment following manufacturer's recommendation.
The day of the assay, the cells were collected and resuspended in Opti-MEM media (ThermoFisher, 31985070) at 2e5 cells/mL concentration. Testing compounds were serial diluted and dispensed into a white 384 well polystyrene plate at 200 nL in 100% DMSO. 40 μL of resuspended cells is then added per well for a final condition of 8K cells/well with 0.5% DMSO. After one-hour compound pre-incubation at 37° C. and 5% CO2, cells were further incubated with 0.35 μM K-5 NanoBRET tracer for two-hours at 37° C. and 5% CO2. […] of 3× substrate plus Inhibitor solution was prepared according to kits manual and added to the cells followed by a 30 second pulse centrifugation spin. The plate was then immediately read utilizing an Envision (Perkin Elmer) plate reader. The BRET signal is measured by taking the ratio of the emissions reading at 610 nm and 450 nm. Compound binding is based on the decrease BRET signal caused by the displacement of the K-5 tracer. […] IC50 value of compounds was determined by 4-parameter non-linear regression fitting of percent activity in GraphPad Prism software.

Axl [2] = molecular target: T1, Axl; experiment: HTRF KinEASE-TK biochemical potency, AXL; parameters: purchased Invitrogen; conditions: 5 nM AXL, 700 μM ATP
Method: (§1) Purified recombinant human AXL, TYRO3 and MER proteins were purchased from Invitrogen™. 10 nM AXL, 2 nM TYRO3 or MER were incubated with varying concentrations of compounds in 50 mM HEPES, pH 7.4, 10 mM MgCl2, 0.01% BSA, 1 mM DTT and 2% DMSO in a total volume of 20 μl in a 384-well microplate (Corning™ #3640) at RT for 1 h. The AXL, TYRO3 and MER enzymatic reaction was initiated by transferring 10 μl of enzyme and compound mixture into 10 μl of 1.6 μM TK Substrate-biotin (HTRF® KinEASE-TK kit, Cisbio) and 1400 μM ATP pre-incubated in 50 mM HEPES, pH 7.4, 10 mM MgCl2, 0.01% BSA, 1 mM DTT in a 384-well microplate (Corning™ #3640) at RT, giving the final reaction conditions: 5 nM AXL, 1 nM TYRO3 or MER, 800 nM TK Substrate-biotin and 700 μM ATP in 50 mM HEPES, pH 7.4, 10 mM MgCl2, 0.01% BSA, 1 mM DTT and 1% DMSO with varying concentrations of compounds. Following 2 h incubation at RT, the AXL, TYRO3 and MER enzymatic reaction was stopped by transfer of 10 μl of reaction into 10 μl of detection mix (400 nM Streptavidin-XL665, 200-fold dilution TK Antibody-Cryptate and detection buffer, HTRF® KinEASE-TK kit, Cisbio) in a white 384-well microplate (Perkin Elmer, OptiPlate 384). After 1 h incubation at RT, the plate was put into a plate reader (Evision) to read at 665/620 nm (acceptor/donor) for HTRF. The value of the DMSO blank (MIN inhibition=100% activity) was used as a negative control. The positive control was established by adding 5 μl of enzyme and DMSO mixture into 10 μl of detection mix followed by addition of 5 μl of TK Substrate-biotin and ATP mixture (MAX inhibition=0% activity). To calculate the percent activity, Equation 1 was used. Ratio665/620 is the value at a given compound concentration: […]

recombinant human TYRO3 = molecular target: T2, recombinant human TYRO3 (Homo sapiens, UniProt Q06418); experiment: HTRF KinEASE-TK biochemical potency, TYRO3; conditions: 1 nM TYRO3, 700 μM ATP
T2 construct: purchased Invitrogen
T2 sequence (Q06418 41-890): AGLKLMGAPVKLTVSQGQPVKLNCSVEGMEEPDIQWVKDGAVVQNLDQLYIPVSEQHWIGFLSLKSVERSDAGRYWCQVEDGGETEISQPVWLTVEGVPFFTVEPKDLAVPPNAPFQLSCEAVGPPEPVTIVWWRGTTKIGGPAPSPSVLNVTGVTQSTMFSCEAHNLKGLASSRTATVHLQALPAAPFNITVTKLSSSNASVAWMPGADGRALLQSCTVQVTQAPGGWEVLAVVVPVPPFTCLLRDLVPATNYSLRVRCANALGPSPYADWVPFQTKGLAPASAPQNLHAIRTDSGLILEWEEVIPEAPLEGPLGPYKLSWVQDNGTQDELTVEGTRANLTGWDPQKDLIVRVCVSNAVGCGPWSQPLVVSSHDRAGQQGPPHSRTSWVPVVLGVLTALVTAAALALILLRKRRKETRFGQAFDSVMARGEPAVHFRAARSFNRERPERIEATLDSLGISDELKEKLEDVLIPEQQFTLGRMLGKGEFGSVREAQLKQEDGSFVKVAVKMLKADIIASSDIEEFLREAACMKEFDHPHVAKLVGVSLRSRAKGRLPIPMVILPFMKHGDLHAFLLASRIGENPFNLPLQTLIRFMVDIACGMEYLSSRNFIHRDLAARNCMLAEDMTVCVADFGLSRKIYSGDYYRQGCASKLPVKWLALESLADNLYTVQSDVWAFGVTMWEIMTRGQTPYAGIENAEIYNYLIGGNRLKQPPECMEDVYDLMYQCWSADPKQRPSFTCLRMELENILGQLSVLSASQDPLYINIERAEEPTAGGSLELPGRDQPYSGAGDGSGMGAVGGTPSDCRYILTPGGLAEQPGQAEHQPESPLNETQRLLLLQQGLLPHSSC
Method: as §1

IC50 (Axl [1]) [nM]	IC50 (Axl [2]) [nM]	IC50 (recombinant human TYRO3) [nM]	Compound
> 1000	> 1000	–	FC1(F)Oc2ccc(-c3n[nH]c4ncc(-c5ccc6c(c5)CCN(C5CCCC5)CC6)cc34)cc2O1 [Example 14, 3-Cyclopentyl-7-(3-(2,2-difluorobenzo[d][1,3]dioxol-5-yl)-1H-pyrazolo[3,4-b]pyridin-5-yl)-2,3,4,5-tetrahydro-1H-benzo[d]azepine]
> 1000	< 100	< 100	CS(=O)(=O)N1CCc2ccc(-c3cnc4[nH]nc(-c5ccc6c(c5)OCCNC6=O)c4c3)cc2CC1 [Example 18, 8-[5-(3-Methanesulfonyl-2,3,4,5-tetrahydro-1H-3-benzazepin-7-yl)-1H-pyrazolo[3,4-b]pyridin-3-yl]-2,3,4,5-tetrahydro-1,4-benzoxazepin-5-one]
> 1000	100 to 1000	–	O=C1NCCOc2cc(-c3n[nH]c4ncc(-c5cc(Cl)c6c(c5)CCN(C5CCCC5)C6)cc34)ccc21 [Example 8, 8-[5-(8-Chloro-2-cyclopentyl-1,2,3,4-tetrahydroisoquinolin-6-yl)-1H-pyrazolo[3,4-b]pyridin-3-yl]-2,3,4,5-tetrahydro-1,4-benzoxazepin-5-one]
